In brackets after ≈: the same amount, converted by molar mass.
Legend:
[1] = Solubility in 0.05M PO4-; assay type: physicochemical; details: for solubility: 0.05 M phosphate buffer, aqueous buffer
[2] = Microsomal clearance, human microsomes
[3] = target: CYP2C9 (Homo sapiens, UniProt P11712); assay: Cytochrome P450 inhibition assay, CYP2C9; details: liver microsomes
[4] = target: CYP2D6 (Homo sapiens, UniProt P10635); assay: Cytochrome P450 inhibition assay, CYP2D6; details: liver microsomes
[5] = target: CYP3A4 (Homo sapiens, UniProt P08684); assay: Cytochrome P450 inhibition assay, CYP3A4; details: liver microsomes
CYP3A4, sequence (P08684 whole entry): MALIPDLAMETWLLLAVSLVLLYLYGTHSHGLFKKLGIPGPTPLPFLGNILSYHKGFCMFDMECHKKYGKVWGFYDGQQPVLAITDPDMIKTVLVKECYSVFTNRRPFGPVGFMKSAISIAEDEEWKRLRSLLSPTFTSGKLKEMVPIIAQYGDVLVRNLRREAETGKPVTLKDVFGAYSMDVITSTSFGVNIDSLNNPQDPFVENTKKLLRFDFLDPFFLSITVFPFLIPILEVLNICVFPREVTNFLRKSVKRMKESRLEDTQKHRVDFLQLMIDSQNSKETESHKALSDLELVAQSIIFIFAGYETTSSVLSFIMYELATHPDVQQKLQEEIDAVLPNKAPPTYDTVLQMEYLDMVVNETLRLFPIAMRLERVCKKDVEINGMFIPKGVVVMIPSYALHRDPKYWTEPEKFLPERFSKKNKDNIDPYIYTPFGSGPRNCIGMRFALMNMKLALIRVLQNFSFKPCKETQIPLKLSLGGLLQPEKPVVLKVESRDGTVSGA

[6] = Hepatocyte clearance; details: for hepatocyte CLint at 1 µM: human, primary pooled cryopreserved hepatocytes in suspension
[7] = Microsomal clearance, mouse microsomes
[8] = target: T1, human MAGL (Homo sapiens, UniProt Q99685); details: = pIC50 - cLogP
T1 sequence (Q99685 1-303): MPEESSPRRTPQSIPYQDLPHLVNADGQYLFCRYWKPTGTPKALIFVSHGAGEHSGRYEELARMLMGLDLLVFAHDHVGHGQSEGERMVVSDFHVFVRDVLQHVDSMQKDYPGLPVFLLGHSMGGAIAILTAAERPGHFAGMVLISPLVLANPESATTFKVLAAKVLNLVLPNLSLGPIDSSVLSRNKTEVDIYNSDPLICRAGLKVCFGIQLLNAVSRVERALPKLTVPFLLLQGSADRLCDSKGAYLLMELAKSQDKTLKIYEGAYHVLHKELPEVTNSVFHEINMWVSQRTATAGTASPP

[9] = Parallel Artificial Membrane Permeability (PAMPA); details: for Papp at 18 h, 150 µM: PAMPA, pH 6; for PAMPA permeability: donor buffer pH 6.0, 18-hour incubation
[10] = target: ABCB1 (MDR1, human P-gp) (Homo sapiens, UniProt P08183); assay: P-glycoprotein (P-gp) assay in LLC-PK1 cells transfected with ABCB1; details: human, LLC-PK1
ABCB1 (MDR1, human P-gp), sequence (P08183 whole entry): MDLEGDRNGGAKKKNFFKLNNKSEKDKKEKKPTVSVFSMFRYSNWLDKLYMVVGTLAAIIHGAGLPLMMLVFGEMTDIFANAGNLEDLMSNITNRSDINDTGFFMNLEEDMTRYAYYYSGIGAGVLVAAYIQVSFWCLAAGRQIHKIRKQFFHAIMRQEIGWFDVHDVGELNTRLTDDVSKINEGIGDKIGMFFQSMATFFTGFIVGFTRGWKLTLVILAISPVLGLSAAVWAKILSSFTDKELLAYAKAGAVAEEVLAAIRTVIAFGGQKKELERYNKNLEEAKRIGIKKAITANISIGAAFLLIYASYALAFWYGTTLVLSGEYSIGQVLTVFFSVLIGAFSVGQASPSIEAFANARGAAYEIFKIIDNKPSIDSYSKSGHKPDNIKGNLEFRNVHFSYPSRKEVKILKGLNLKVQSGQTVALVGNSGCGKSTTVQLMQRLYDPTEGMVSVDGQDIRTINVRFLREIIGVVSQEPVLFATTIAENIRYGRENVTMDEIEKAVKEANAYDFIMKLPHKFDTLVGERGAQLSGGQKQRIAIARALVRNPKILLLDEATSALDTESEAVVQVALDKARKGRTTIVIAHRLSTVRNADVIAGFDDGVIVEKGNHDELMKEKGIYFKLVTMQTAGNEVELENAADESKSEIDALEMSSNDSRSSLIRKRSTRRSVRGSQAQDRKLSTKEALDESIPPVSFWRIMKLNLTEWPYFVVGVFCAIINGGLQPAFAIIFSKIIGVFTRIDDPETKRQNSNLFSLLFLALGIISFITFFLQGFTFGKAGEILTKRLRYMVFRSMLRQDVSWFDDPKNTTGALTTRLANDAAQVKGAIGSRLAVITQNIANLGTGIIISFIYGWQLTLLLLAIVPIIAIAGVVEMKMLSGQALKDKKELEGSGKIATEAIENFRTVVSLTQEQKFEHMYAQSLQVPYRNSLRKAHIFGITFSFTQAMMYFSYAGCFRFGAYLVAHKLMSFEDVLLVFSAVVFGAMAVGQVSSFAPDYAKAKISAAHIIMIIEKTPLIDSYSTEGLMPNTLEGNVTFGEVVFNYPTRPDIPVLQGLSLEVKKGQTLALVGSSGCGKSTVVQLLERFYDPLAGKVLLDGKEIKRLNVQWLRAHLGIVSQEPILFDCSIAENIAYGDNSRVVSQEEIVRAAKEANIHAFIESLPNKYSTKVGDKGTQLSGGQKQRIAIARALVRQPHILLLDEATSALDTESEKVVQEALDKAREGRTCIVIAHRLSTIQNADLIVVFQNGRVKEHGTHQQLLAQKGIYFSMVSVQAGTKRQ

[11] = Solubility in FESSIF; assay type: physicochemical

CYP2C9, sequence (P11712 whole entry): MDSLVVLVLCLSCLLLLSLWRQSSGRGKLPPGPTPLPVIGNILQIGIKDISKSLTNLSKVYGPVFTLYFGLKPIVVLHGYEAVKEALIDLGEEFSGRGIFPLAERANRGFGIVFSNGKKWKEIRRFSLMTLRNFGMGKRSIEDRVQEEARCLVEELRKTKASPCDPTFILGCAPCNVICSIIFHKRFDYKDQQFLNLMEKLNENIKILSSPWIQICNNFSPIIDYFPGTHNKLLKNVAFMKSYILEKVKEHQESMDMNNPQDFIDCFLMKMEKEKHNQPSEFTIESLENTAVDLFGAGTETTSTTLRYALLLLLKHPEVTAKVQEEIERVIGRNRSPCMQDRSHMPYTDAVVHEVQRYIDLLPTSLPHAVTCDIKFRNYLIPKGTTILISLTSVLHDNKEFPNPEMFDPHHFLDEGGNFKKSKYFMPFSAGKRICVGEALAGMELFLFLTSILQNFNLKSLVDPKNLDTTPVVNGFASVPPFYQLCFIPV
CYP2D6, sequence (P10635 whole entry): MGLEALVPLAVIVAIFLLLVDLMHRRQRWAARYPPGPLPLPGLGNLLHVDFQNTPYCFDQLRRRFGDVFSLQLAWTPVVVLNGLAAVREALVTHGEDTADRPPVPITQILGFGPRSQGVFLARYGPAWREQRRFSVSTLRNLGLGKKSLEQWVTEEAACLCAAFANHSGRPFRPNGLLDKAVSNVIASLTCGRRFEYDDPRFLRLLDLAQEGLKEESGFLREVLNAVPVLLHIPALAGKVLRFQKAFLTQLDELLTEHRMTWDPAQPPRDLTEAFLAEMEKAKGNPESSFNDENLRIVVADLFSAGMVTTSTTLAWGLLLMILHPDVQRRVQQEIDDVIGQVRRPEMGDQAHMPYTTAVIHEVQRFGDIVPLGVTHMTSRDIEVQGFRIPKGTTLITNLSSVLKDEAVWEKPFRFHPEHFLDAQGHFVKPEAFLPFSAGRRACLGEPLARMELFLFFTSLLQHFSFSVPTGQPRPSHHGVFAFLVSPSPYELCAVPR

| solubility [1] | microsomal CLint at 1 µM [2] | CYP2C9 Inhibition [3] | CYP2D6 Inhibition [4] | CYP3A4 Inhibition [5] | hepatocyte CLint at 1 µM [6] | microsomal CLint at 1 µM [7] | Papp at 18 h, 150 µM [9] | Papp A→B [10] | solubility [11] | cell permeability ([9]; in words, SI2.2, Fig. S1 (PAMPA vs LipE)) | SMILES | Solubility in 0.05M PO4- [1] | Lipophilic efficiency (LipE) [8] | Hepatocyte clearance ([6]; cryopreserved hepatocytes of human origin, 1 µM compound) | PAMPA permeability [9] |
| --- | --- | --- | --- | --- | --- | --- | --- | --- | --- | --- | --- | --- | --- | --- | --- |
| < 0.05 µg/mL | 853 µL/min/mg | 62% | 45% | > 90% |  |  |  |  |  |  | O=C(c1ccc2nc(-c3cnccc3C3CCCC3)oc2c1)N1CCN(c2nc3ccccc3c(=O)[nH]2)CC1 [Compound 18] |  |  |  |  |
| < 0.05 µg/mL | 69 µL/min/mg | 45% | 26% | 8% | 42.2 µL/min/1e6 cells | 61 µL/min/mg | 8.5 ×10⁻⁶ cm/s | 9.3 ×10⁻⁶ cm/s | 2.5 µg/mL (≈ 4.73 µM) |  | O=C(c1ccc2nc(-c3cccnc3C3CCCC3)oc2c1)N1CCN(c2nc3nc(Cl)ccc3o2)CC1 [Compound 24] |  |  |  |  |
| 84 µg/mL | 10 µL/min/mg | -5% | 34% | 70% | 1 µL/min/1e6 cells | 10 µL/min/mg | 0.02 ×10⁻⁶ cm/s |  |  |  | O=C(c1ccc2nc(-c3cnccc3C3CCNCC3)oc2c1)N1CCN(c2nc3nc(Cl)ccc3o2)CC1.O=CO [Compound 25] |  |  |  |  |
| < 0.05 µg/mL | 563 µL/min/mg | -19% | 3% | -40% | 187 µL/min/1e6 cells |  | 4.4 ×10⁻⁶ cm/s |  |  |  | O=C(c1ccc2nc(-c3ccc(C4CCCC4)nc3)oc2c1)N1CC2(CC(n3cnc(C4CC4)n3)C2)C1 [Compound 30] |  |  |  |  |

Continued, compound first:

| SMILES | solubility [1] | microsomal CLint at 1 µM [2] | CYP2C9 Inhibition [3] | CYP2D6 Inhibition [4] | CYP3A4 Inhibition [5] | hepatocyte CLint at 1 µM [6] | microsomal CLint at 1 µM [7] | Papp at 18 h, 150 µM [9] | Papp A→B [10] | solubility [11] | cell permeability ([9]; in words, SI2.2, Fig. S1 (PAMPA vs LipE)) | Solubility in 0.05M PO4- [1] | Lipophilic efficiency (LipE) [8] | Hepatocyte clearance ([6]; cryopreserved hepatocytes of human origin, 1 µM compound) | PAMPA permeability [9] |
| --- | --- | --- | --- | --- | --- | --- | --- | --- | --- | --- | --- | --- | --- | --- | --- |
| O=C(c1ccc2nc(-c3cnc(C4CCCCC4)cc3C3CCCCC3)oc2c1)N1CCN(c2nc3ccccc3c(=O)[nH]2)CC1 [Compound 19] | < 1.1 µg/mL | 17 µL/min/mg | 49% | 23% | 44% | 4.6 µL/min/1e6 cells | 47 µL/min/mg |  |  |  |  |  |  |  |  |
| O=C(c1ccc2nc(-c3ccc(C4(C5CCC5)CC4)nc3)oc2c1)N1CCN(c2nc3ccccc3c(=O)[nH]2)CC1 [Compound 20] |  |  | 24% | 16% | 49% |  |  |  |  |  |  | < 0.05 µg/mL | 2.84 | 84.2 µL/min/10^6 cells |  |
| O=C(c1ccc2nc(-c3cccnc3C3CCCC3)oc2c1)N1CCN(c2nc3ccccc3c(=O)[nH]2)CC1 [Compound 21] | < 0.05 µg/mL | 53 µL/min/mg | 74% | 41% | 4% | 47.7 µL/min/1e6 cells | 114 µL/min/mg | 3.7 ×10⁻⁶ cm/s | 10 ×10⁻⁶ cm/s |  |  |  |  |  |  |
| O=C(c1ccc2nc(-c3ccc(C4CCCC4)nc3)oc2c1)N1CCN(c2nc3ccccc3c(=O)[nH]2)CC1 [Compound 22] | < 0.05 µg/mL | 142 µL/min/mg | 23% | 62% | -59% | 104 µL/min/1e6 cells |  | 2.7 ×10⁻⁶ cm/s | 8.1 ×10⁻⁶ cm/s |  |  |  |  |  |  |
| O=C(c1ccc2nc(-c3cccnc3C3CCNCC3)oc2c1)N1CCN(c2nc3nc(Cl)ccc3o2)CC1.O=CO [Compound 26] |  |  | -23% | 18% | 12% |  |  |  |  |  |  | > 590 µg/mL |  |  | 0.01 10^-6 cm/s |
| O=C(c1ccc2nc(-c3cccnc3C3(C4CCC4)CC3)oc2c1)N1CCN(c2nc3nc(Cl)ccc3o2)CC1 [Compound 28] |  |  |  |  |  |  |  |  |  |  |  |  | 2.31 |  | 5.8 10^-6 cm/s |
| O=C(c1ccc2nc(-c3cnccc3C3CCCC3)oc2c1)N1CC(N2CCN(C(=O)c3nccs3)CC2)C1 [Compound 31] |  | 431 µL/min/mg | 43% | 22% | > 90% | 163 µL/min/1e6 cells |  | 12.1 ×10⁻⁶ cm/s |  |  | potent cell permeability |  |  |  |  |

From PMC12749626, “Expediting hit-to-lead progression in drug discovery through reaction prediction and multi-dimensional optimization” (Nature Communications, 2025)
